Entries after “also recorded” stand apart in the source; their conditions may differ. Where two headings read alike, the source gives them in different places.
How the values were obtained:
[1] = in vivo; cited from earlier work
[2] = test system: preclinical models of SMA (mice); conditions: cited from earlier work; for blood brain barrier (BBB) crossing: mouse, in vivo; for SMN protein levels compared to vehicle: oral dosing, brain and muscle
Δ7 mice = conditions: 0.1 mg/kg/day from birth; cited from earlier work
[3] = test system: dexamethasone treated mice; assay: Dexamethasone-induced muscle atrophy in mice; format: in vivo, mouse
Text: (§1) FIG. 2A and FIG. 2B provide a summary of dexamethasone-induced atrophy in mice: FIG. 2A illustrates the experimental model of single-dose SRK-015 treatment in healthy and atrophy-induced mice; FIG. 2B provides changes in gastrocnemius muscle weights measured at the indicated time points.
(§2) SRK-015 increased muscle mass in healthy animals and reduced muscle loss in a dexamethasone-induced model of atrophy. […] SRK-015 was also effective in preventing muscle loss upon dexamethasone treatment.

murine proMyostatin = assay: Binding to murine proMyostatin; parameters: species or system mouse
GDF11 = assay: Binding specificity: GDF11; conditions: any form of GDF11
Activin A = assay: Binding specificity: Activin A; conditions: any form
mature BMP9 = target: T1, mature BMP9 (Homo sapiens, UniProt Q9UK05); assay: Binding specificity: mature BMP9
T1 sequence (Q9UK05 320-429): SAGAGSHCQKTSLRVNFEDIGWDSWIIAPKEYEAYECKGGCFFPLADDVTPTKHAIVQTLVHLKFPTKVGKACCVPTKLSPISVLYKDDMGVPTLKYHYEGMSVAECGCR

mature BMP10 = target: T2, mature BMP10 (Homo sapiens, UniProt O95393); assay: Binding specificity: mature BMP10
T2 sequence (O95393 317-424): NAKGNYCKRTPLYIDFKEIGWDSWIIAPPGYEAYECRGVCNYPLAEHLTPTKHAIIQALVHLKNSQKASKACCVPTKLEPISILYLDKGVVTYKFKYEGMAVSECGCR

mature TGFβ1 = mature TGFβ1 (Homo sapiens, UniProt P01137); assay: Binding specificity: mature TGFβ1
mature GDF-8 = mature GDF-8 (Homo sapiens, UniProt O14793); assay: Binding specificity: mature GDF-8
Method: In some embodiments, suitable dosage of SRK-015 for administration in human patients for the treatment of SMA ranges between 1 and 30 mg/kg, e.g., 1-5 mg/kg, 3-5 mg/kg, 3-10 mg/kg, 5-10 mg/kg, 5-15 mg/kg, 5-20 mg/kg, 10-20 mg/kg, etc. In some embodiments, the patient is administered SRK-015 once a week, once every two weeks, once every three weeks, once a month, once every six weeks, etc.

proMyostatin [4] = target: T3, proMyostatin (Homo sapiens, UniProt O14793); assay: proMyostatin activation assay, Smad2/3 luciferase reporter cell line; format: cell-based; conditions: proMyostatin incubated with furin and mTTL-2 proteases
T3 construct: made in house; host or cells: mammalian expression system
Text: (§3) Antibody SRK-015P (“P” for parental) was optimized to generate SRK-015, a fully human monoclonal antibody. SRK-015 differs from its parental clone by five residues in the variable domain outside the complementarity determining region. […] Both SRK-015 and SRK-015P had similar functional activity towards human and mouse proMyostatin in the reporter assay such that EC50 values for the two antibodies in proMyostatin activation assay using human and mouse proMyostatin, are similar. […] The ability of SRK-015 to bind the myostatin prodomain and to inhibit tolloid cleavage has been shown. Purified recombinant latent myostatin was incubated with TLL-2 tolloid protease in the presence of increasing concentrations of SRK-015. Samples were separated by reducing SDS-PAGE and probed by Western blot with an antibody that recognizes the myostatin prodomain.

proMyostatin [5] = target: T3, proMyostatin; assay: proMyostatin activation reporter assay, human proMyostatin; format: cell-based
Text: as §3

mouse proMyostatin = target: T4, mouse proMyostatin (Mus musculus, UniProt O08689); assay: proMyostatin activation reporter assay, mouse proMyostatin; format: cell-based
T4 construct: made in house; host or cells: mammalian expression system
Text: as §3

proGDF11 = proGDF11 (Homo sapiens, UniProt O95390); assay: Protease activity reporter assay using proGDF11 as substrate; format: cell-based
mature myostatin = mature myostatin (Homo sapiens, UniProt O14793); assay: Mature myostatin signaling in Smad2/3 reporter assay; format: cell-based
latent myostatin [6] = target: T5, latent myostatin (Homo sapiens, UniProt O14793); assay: TLL-2 tolloid cleavage of latent myostatin, Western blot; format: biochemical; conditions: increasing antibody concentrations
T5 construct: Following cleavage, the growth factor and prodomain remain associated, forming a latent complex (latent myostatin)
Text: as §3

healthy male mice = assay: Muscle mass in healthy mice after single dose; format: in vivo, mouse; conditions: single 20 mg/kg dose, after 15 days
Text: as §1, §2

[7] = Pharmacokinetics in scid mice, anti-human IgG ELISA; format: in vivo, mouse; conditions: single 5 mg/kg IV dose, serum
Method: (§4) Male scid mice were administered a single 5 mg/kg IV dose of SRK-015. Separate cohorts of mice were sacrificed 4 hours, 2, 8, 15, 22, 29, and 56 days post dose, and serum and TA muscles collected for PK and target engagement assays. N=4 or 8 per group. SRK-015 levels were determined from serum samples taken at the indicated times after dosing. Analysis was performed using an anti-human IgG ELISA. The half-life of SRK-015 in scid mice at 5 mg/kg was ˜20.3 days.

scid mice = assay: Lean mass by qNMR in scid mice; format: in vivo, mouse; conditions: single 5 mg/kg dose
Method: as §4
(§5) Lean mass was measured with qNMR at the indicated timepoints after dosing. […] Target engagement was assessed by analyzing levels of latent myostatin in serum and muscle using western blot. Binding to SRK-015 results in accumulation of latent myostatin as the bound target assumes the half-life of the antibody and accumulates in circulation and in the target tissues. […] Samples from three mice from each cohort were analyzed.

latent myostatin [8] = target: T6, latent myostatin (Mus musculus, UniProt O08689); assay: Target engagement in serum and muscle of scid mice, western blot; format: in vivo; conditions: single 5 mg/kg dose
T6 construct: from tissue; host or cells: mouse serum and tibialis anterior muscle
Method: as §4, §5

[9] = Pharmacokinetics in cynomolgus monkeys, ELISA; format: in vivo; conditions: for T1/2: post-dosing period
Method: (§6) SRK-015 PK properties were also determined in cynomolgus monkeys. Two- to three-year old male animals (average age 34 months) were administered weekly doses of 3 mg/kg or 30 mg/kg SRK-015 for 8 weeks. Following the last dose, animals were followed for an additional five weeks in the absence of drug administration. Samples from this post-dosing period were used to calculate PK parameters. […] Antibody levels were assessed by ELISA.

cynomolgus monkeys = assay: Muscle weights in cynomolgus monkeys; format: in vivo
Method: as §6
(§7) At study termination animals were sacrificed five weeks after the last dose as described in above and muscle weights were determined. Gastrocnemius and Biceps brachii muscles (FIG. 10A and FIG. 10B, respectively) show increased mass following SRK-015 treatment. Gastrocnemius weights increased 21% in the 3 mg/kg groups, and 23% in the 30 mg/kg groups relative to vehicle control. * indicates statistically significant difference from vehicle by one-way ANOVA; P<0.007. Biceps brachii weights increased 18% in the 3 mg/kg groups, and 25% in the 30 mg/kg group relative to vehicle control. * indicates statistically significant difference from vehicle by one-way ANOVA; P<0.02. […] Serum samples were collected at the indicated study day and analyzed by semi-quantitative western blot analysis. Accumulation of latent myostatin, indicative of SRK-015 binding, is evident by day 8. Target continues to accumulate as additional doses are administered. Latent myostatin levels were quantified as described in Example 7 above. The effects of SRK-015 on muscle weight indicate that even at lower end of dosage (e.g., 3 mg/kg/week) SRK-015 is at or near the level of target engagement necessary for maximal efficacy.

latent myostatin [10] = target: T7, latent myostatin (Macaca fascicularis, UniProt Q95J86); assay: Target engagement in cynomolgus serum, semi-quantitative western blot; format: in vivo, cynomolgus monkeys; conditions: 3 mg/kg or 30 mg/kg weekly
T7 construct: from tissue; host or cells: cynomolgus monkey serum
Method: as §7

[11] = test system: infantile-onset SMA (type I) patients; conditions: cited from earlier work
Type II SMA patients = conditions: cited from earlier work; for HFMSE score increase relative to placebo group: mean
SMA patients = conditions: human, in vivo; cited from earlier work
[12] = 3 mg/kg weekly x8, five weeks after last dose
[13] = 30 mg/kg weekly x8, five weeks after last dose

Sequence of mature TGFβ1 (P01137 279-390 limits assumed): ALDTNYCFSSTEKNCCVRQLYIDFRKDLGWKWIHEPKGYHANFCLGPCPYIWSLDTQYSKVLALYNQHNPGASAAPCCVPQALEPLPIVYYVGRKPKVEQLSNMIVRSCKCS
Sequence of proGDF11 (O95390 299-407): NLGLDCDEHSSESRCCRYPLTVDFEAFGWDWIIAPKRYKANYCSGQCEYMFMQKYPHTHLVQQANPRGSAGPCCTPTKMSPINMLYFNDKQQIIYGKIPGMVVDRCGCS

For CC1(C)CC(Oc2ccc(-c3ccc(-c4cn[nH]c4)cc3O)nn2)CC(C)(C)N1 [LMI070], the preclinical toxicity findings [1] is given as “injuries to the peripheral nerves and spinal cord, testes, and blood vessels in the kidney”.

For CCc1nc(C)cn2nc(-c3cc(=O)n4cc(C5CCN(C)CC5)cc(C)c4n3)cc12 [RG7800], the “blood brain barrier (BBB) crossing” value [2] is given as “efficiently crossed the blood brain barrier” and the “SMN protein levels compared to vehicle” value [2] is given as “increased SMN protein levels in both brain and muscle tissues”.

For Cc1cn2cc(-c3cc4ccc(N5CCN(C)CC5)cc4c(=O)o3)nc2c(C)n1 [SMN-C1], the “treated mice surviving to post-natal day (PND) 52” value (Δ7 mice) is listed as 70%.

For CCN1CCN(c2ccc3cc(-c4cn5cc(C)nc(C)c5n4)c(=O)oc3c2)C[C@@H]1C [SMN-C2], the “blood brain barrier (BBB) crossing” value [2] is given as “efficiently crossed the blood brain barrier” and the “SMN protein levels compared to vehicle” value [2] is given as “increased SMN protein levels in both brain and muscle tissues”.

In the case of CCN1CCC(c2cc(C)c3nc(-c4cc5c(C)nc(C)cn5n4)cc(=O)n3c2)CC1 [SMN-C3], the “blood brain barrier (BBB) crossing” value [2] is given as “efficiently crossed the blood brain barrier” and the “SMN protein levels compared to vehicle” value [2] is given as “increased SMN protein levels in both brain and muscle tissues”.

In the case of C[C@@H]1C[C@H]2[C@@H]3CCC4=CC(=O)C=C[C@]4(C)[C@@]3(F)[C@@H](O)C[C@]2(C)[C@@]1(O)C(=O)CO [dexamethasone, reference compound], the “loss of muscle mass, IgG vehicle versus IgG Dex” value ([3]; chronic administration, by day 8) is reported as 16%.

For “SRK-015: fully human monoclonal antibody optimized from SRK-015P; binds pro/latent myostatin and inhibits release of mature growth factor”, the Kd (murine proMyostatin) was 8.35 nM, the “binding to GDF11” value (GDF11) was “does not bind; also recorded: no detectable binding” and the “binding to Activin A” value (Activin A) was “no detectable binding”. The “binding to mature BMP9” value (mature BMP9) was “no detectable binding”, the “binding to mature BMP10” value (mature BMP10) was “no detectable binding” and the “binding to mature TGFβ1” value (mature TGFβ1) was “no detectable binding”. The “binding to mature GDF-8” value (mature GDF-8) was “does not bind”, the “release of mature myostatin, measured by luciferase expression” value (proMyostatin [4]) was “inhibited release of mature myostatin” and the “EC50 in proMyostatin activation assay, the two antibodies compared” value (proMyostatin [5]) was “similar”. For the same compound, the “EC50 in proMyostatin activation assay, the two antibodies compared” value (mouse proMyostatin) was “similar”, the “effect in protease activity assay with proGDF11” value (proGDF11) was “no effect” and the “inhibition of mature myostatin signaling” value (mature myostatin) was “did not inhibit”. The “tolloid-mediated cleavage of latent myostatin” value (latent myostatin [6]) was “inhibited the second (tolloid-mediated) proteolysis step”, the “increase in muscle mass versus IgG control” value (healthy male mice) was 17.5% and the “muscle atrophy under dexamethasone” value ([3]; single 20 mg/kg dose, throughout the study) was “prevented muscle atrophy”. For the same compound, the half-life [7] was about 487 h, the “lean mass relative to IgG control” value (scid mice) was “significant increase in lean mass” and the “onset of significant target engagement in circulation” value (latent myostatin [8]) was “within four hours”. The “onset of significant target engagement in muscle” value (latent myostatin [8]) was “within two days”, the “target engagement at 56 days post-dosing” value (latent myostatin [8]) was “no longer observed” and the “target engagement sustained out to” value (latent myostatin [8]) was 29 days post dose. It also gave an AUClast ([9]; 3 mg/kg weekly for 8 weeks) of 60799 hr▪ng/ml, a Cmax ([9]; 3 mg/kg weekly for 8 weeks) of 0.243 µg/mL and a Tmax ([9]; 3 mg/kg weekly for 8 weeks) of 51 h. The T1/2 ([9]; 3 mg/kg weekly for 8 weeks) was 12.4 h, the AUClast ([9]; 30 mg/kg weekly for 8 weeks) was 1070638 hr▪ng/ml and the Cmax ([9]; 30 mg/kg weekly for 8 weeks) was 2.648 µg/mL. The Tmax ([9]; 30 mg/kg weekly for 8 weeks) was 15 h, the T1/2 ([9]; 30 mg/kg weekly for 8 weeks) was 22.2 h and the “Biceps brachii weight increase relative to vehicle control” value (cynomolgus monkeys; [12]) was 18%. The “Gastrocnemius weight increase relative to vehicle control” value (cynomolgus monkeys; [12]) was 21%, the “Biceps brachii weight increase relative to vehicle control” value (cynomolgus monkeys; [13]) was 25% and the “Gastrocnemius weight increase relative to vehicle control” value (cynomolgus monkeys; [13]) was 23%. For the same compound, the “target engagement in serum” value (latent myostatin [10]) was “engaged latent myostatin at both doses tested” and the “accumulation of latent myostatin evident by” value (latent myostatin [10]; serum) was at most 8 days.

In the case of nusinersen, the “treated patients able to sit unaided” value ([11]; Type I patients) is given as “five of 81”, the “patients reported to be non-responders” value ([11]; infantile-onset SMA (type I)) is given as 60% and the “treated patients with improvements in motor milestones (Hammersmith Infant Neurological Examination)” value ([11]; interim analysis, 0% placebo) is given as 41%. The “patients not attaining at least 3-point HFMSE improvement” value (Type II SMA patients; in vivo) was 43%, the “HFMSE score increase relative to placebo group” value (Type II SMA patients) was 5.9 points and the “HFMSE score increase relative to placebo group” value (Type II SMA patients; listed as Nusinersen) was “less than 6 points”. For the same compound, the “compound muscle action potential (CMAP) amplitudes” value (SMA patients) was “improvements”.

Source: patent US10946036B2, “Use of myostatin inhibitors and combination therapies” (Scholar Rock, Inc., priority 2016, dated 2021)
